This passage reports inhibition results from patent US11572590B2, “Methods for evaluating tumor cell spheroids using 3D microfluidic cell culture device” (Dana-Farber Cancer Institute, Inc., priority 2017, dated 2023).

Common to all, as to experiment: SelectScreen Kinase Profiling, single point inhibition and IC50 for off-target kinases
Holding throughout (type): biochemical

Test [1] has as its target off-target kinases (Homo sapiens, UniProt O00750). Conditions: PIK3C2B (PI3K-C2 beta), Adapta, ATP 10.
Test [2] concerns the target off-target kinases (Homo sapiens, UniProt P37173). Conditions: TGFBR2, LanthaScreen Binding. (In general: Time-resolved FRET reads energy transfer from a long-lived donor to a nearby acceptor.)
The target of test [3] is T1, off-target kinases (Homo sapiens, UniProt P54762).
T1 sequence (P54762 18-984): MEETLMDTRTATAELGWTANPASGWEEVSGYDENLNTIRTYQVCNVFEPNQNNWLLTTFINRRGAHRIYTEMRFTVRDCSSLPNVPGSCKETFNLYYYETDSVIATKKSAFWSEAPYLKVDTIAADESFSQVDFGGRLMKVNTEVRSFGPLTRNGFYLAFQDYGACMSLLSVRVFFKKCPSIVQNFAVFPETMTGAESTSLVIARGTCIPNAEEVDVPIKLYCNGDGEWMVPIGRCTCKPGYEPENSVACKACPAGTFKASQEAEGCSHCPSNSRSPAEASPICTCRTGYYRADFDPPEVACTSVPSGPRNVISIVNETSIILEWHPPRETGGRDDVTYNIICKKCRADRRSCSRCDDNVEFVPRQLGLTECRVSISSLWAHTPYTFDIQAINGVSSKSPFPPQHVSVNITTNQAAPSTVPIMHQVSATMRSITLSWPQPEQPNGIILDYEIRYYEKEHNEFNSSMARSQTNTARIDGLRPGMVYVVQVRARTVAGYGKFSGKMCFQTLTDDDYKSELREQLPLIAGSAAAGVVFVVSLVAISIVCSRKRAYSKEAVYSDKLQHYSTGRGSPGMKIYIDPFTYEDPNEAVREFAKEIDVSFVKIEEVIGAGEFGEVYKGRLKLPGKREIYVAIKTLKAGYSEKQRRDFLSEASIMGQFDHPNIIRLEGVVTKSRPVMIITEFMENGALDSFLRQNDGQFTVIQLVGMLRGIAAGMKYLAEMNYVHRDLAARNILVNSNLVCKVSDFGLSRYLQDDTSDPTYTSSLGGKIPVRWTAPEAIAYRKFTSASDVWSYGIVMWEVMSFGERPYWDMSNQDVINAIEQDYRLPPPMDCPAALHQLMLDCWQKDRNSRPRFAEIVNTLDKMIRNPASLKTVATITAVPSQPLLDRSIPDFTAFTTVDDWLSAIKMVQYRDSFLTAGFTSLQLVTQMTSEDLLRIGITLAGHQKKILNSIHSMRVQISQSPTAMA
Conditions: EPHB1, ZLYTE, ATP Km app.

The target of test [4] is off-target kinases (Homo sapiens, UniProt Q9H2X6). Conditions: HIPK2, ZLYTE, ATP Km app.
Test [5] deals with T2, off-target kinases (Homo sapiens, UniProt Q9NWZ3).
T2 sequence (Q9NWZ3 1-460): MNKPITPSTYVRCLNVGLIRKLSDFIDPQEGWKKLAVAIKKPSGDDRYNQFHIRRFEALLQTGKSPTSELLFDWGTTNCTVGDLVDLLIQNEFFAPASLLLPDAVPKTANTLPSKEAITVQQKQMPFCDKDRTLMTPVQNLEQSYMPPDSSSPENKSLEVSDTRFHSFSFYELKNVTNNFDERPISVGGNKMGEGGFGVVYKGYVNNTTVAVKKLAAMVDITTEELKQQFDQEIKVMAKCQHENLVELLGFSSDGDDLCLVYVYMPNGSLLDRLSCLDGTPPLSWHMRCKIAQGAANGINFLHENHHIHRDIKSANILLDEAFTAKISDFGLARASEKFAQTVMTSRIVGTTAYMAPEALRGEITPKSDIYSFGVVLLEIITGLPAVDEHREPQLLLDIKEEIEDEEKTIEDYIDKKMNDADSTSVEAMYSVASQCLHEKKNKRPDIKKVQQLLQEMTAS
Conditions: IRAK4, ZLYTE, ATP Km app.

Structures are written as SMILES. Read-outs that look alike come from different tables or passages of the source.

Chain of off-target kinases (Homo sapiens, UniProt Q9H2X6) (Q9H2X6 whole entry): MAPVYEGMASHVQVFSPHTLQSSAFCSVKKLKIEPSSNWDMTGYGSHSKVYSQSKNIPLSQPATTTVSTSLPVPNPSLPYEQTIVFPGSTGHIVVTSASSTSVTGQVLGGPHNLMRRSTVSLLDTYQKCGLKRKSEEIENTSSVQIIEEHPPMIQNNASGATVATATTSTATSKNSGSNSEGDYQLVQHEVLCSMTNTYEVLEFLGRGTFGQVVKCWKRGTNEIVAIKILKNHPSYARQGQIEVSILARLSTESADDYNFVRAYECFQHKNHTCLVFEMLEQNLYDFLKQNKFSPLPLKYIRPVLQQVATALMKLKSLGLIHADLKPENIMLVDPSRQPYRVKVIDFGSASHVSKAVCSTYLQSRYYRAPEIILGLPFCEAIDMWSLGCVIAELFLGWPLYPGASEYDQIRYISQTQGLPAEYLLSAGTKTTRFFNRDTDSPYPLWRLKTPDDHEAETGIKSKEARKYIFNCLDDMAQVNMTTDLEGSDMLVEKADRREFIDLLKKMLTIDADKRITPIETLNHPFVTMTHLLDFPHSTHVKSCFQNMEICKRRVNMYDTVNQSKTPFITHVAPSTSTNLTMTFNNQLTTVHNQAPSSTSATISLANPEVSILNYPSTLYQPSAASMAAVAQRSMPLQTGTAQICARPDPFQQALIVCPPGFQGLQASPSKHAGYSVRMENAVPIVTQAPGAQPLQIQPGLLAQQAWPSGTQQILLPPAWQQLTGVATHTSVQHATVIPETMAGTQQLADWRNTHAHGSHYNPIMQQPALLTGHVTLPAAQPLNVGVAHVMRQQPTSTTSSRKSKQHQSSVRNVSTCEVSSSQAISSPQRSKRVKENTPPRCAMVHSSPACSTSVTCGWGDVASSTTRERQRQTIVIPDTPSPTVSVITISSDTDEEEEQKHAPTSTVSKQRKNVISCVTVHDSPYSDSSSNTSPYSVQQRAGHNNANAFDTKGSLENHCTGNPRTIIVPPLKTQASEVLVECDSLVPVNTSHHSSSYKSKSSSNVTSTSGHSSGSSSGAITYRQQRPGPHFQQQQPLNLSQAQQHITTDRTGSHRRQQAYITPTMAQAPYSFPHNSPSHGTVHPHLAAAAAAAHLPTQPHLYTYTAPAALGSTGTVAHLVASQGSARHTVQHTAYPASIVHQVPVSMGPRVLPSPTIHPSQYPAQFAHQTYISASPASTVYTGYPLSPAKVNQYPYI
Chain of off-target kinases (Homo sapiens, UniProt O00750) (O00750 whole entry): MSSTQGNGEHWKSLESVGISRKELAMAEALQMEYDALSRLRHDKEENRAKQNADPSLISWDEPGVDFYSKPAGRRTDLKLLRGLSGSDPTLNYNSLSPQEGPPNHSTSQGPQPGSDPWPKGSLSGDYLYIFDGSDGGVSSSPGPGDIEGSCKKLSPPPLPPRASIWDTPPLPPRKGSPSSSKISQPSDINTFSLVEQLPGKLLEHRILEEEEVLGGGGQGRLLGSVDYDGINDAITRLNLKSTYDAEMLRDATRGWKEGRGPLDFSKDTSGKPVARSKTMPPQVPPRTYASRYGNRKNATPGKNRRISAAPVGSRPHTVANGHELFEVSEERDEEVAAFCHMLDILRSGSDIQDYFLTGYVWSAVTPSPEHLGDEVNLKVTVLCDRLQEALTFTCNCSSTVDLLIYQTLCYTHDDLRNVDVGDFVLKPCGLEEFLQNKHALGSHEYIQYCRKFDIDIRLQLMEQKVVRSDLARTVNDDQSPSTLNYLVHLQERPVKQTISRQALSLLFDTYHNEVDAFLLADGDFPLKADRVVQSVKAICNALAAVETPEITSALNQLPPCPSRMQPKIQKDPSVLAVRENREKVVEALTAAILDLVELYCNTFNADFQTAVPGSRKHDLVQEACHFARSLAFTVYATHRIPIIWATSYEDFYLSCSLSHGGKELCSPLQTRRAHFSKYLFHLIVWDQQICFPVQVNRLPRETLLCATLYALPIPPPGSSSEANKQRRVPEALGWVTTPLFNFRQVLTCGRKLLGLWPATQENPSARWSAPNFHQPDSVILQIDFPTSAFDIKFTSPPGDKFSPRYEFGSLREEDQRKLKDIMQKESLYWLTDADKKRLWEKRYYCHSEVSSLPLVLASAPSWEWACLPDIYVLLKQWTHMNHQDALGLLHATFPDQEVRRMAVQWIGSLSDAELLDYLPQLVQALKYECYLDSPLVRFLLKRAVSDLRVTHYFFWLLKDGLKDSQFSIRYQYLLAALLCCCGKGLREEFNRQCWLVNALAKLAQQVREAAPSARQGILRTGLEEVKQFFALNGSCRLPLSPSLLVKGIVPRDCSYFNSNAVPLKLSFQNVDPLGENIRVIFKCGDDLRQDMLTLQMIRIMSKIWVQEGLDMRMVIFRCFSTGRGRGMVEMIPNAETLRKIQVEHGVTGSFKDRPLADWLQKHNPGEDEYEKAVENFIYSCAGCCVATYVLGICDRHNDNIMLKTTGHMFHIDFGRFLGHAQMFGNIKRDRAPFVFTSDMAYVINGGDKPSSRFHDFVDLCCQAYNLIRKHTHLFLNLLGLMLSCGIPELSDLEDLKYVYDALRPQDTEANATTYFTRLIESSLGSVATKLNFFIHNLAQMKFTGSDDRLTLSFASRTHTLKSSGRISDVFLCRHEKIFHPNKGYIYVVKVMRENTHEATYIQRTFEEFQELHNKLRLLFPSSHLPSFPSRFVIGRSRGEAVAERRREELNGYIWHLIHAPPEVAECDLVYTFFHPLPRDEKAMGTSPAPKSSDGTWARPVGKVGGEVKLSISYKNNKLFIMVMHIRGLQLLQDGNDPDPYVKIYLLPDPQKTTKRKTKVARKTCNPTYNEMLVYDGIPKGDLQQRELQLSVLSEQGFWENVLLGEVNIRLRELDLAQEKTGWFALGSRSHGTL
Chain of off-target kinases (Homo sapiens, UniProt P37173) (P37173 23-567): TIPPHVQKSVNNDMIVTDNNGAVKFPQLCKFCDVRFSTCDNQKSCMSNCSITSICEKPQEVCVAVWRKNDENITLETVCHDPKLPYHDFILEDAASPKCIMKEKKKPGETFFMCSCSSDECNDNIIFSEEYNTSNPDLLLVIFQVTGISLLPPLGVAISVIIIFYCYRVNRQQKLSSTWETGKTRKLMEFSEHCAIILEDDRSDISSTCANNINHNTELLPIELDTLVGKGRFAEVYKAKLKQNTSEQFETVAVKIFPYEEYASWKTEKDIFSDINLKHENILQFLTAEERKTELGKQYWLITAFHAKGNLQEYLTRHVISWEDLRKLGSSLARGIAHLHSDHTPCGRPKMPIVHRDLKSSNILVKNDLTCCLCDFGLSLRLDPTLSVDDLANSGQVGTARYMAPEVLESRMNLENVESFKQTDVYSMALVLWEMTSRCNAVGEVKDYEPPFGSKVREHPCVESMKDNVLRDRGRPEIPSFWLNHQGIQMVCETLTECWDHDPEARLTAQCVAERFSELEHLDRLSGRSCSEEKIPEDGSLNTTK

One may read the inhibition as the relative decrease from the control value, in per cent. Take `N#Cc1cc(-c2ncnc(Nc3ccc(N4CCN(C5COC5)CC4)cc3)n2)ccc1OC1CCOCC1` [Compound 1, 5-(4-((4-(4-(oxetan-3-yl)piperazin-1-yl)phenyl)amino)-1,3,5-triazin-2-yl)-2-((tetrahydro-2H-pyran-4-yl)oxy)benzonitrile]: the inhibition was 3% at off-target kinases [1] (read-out: % Inhibition 1); -7% at off-target kinases [1] (read-out: % Inhibition 2); -2% on off-target kinases [1] (read-out: % Inhibition Avg); 92% at off-target kinases [2] (read-out: % Inhibition 1); 95% at off-target kinases [2] (read-out: % Inhibition 2); 93% on off-target kinases [2] (read-out: % Inhibition Avg). In addition, the inhibition was 34% on off-target kinases [3] (read-out: % Inhibition 1); 31% on off-target kinases [3] (read-out: % Inhibition 2); 33% at off-target kinases [3] (read-out: % Inhibition Avg); 21% on off-target kinases [4] (read-out: % Inhibition 1); 19% on off-target kinases [4] (read-out: % Inhibition 2); 20% on off-target kinases [4] (read-out: % Inhibition Avg). Also, the inhibition amounted to 5% on off-target kinases [5] (read-out: % Inhibition 1), 8% at off-target kinases [5] (read-out: % Inhibition 2) and 6% on off-target kinases [5] (read-out: % Inhibition Avg).
